The supplement of paper PMC10307832

Legend:
Experiment in all cases: relative viability (nuclei count vs DMSO), 5 days (fraction); higher = more cells survive
[1] = compound: COc1cc2nccc(Oc3ccc(NC(=O)C4(C(=O)Nc5ccc(F)cc5)CC4)cc3)c2cc1OC [Cabozantinib] + Cc1cc(Nc2cc(N3CCN(C)CC3)nc(Sc3ccc(NC(=O)C4CC4)cc3)n2)n[nH]1 [Tozasertib] (partner 0.1 µM)
Outline: (§1)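 The day after seeding in 1536-well plates, lung cancer cell lines were treated by pin tool with a single drug, or with a fixed anchor-drug dose together with five library-drug doses (not always all listed) in √10 steps. After 5 days, a combined fix-and-stain solution (final 0.05% Triton X-100, 1% formaldehyde, 1 ug/ml Hoechst) was added. Nuclei counted on 4× images gave relative viability as treated counts over vehicle counts, reported as the median of duplicate plates.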

[2] = compound: COc1cc2nccc(Oc3ccc(NC(=O)C4(C(=O)Nc5ccc(F)cc5)CC4)cc3)c2cc1OC [Cabozantinib] + CCNC(=O)c1noc(-c2cc(C(C)C)c(O)cc2O)c1-c1ccc(CN2CCOCC2)cc1 [Luminespib] (partner 0.01 µM)
Outline: as §1

Zosuquidar + AZD7762 = compound: O[C@@H](COc1cccc2ncccc12)CN1CCN([C@@H]2c3ccccc3[C@@H]3[C@H](c4ccccc42)C3(F)F)CC1 [Zosuquidar] + NC(=O)Nc1cc(-c2cccc(F)c2)sc1C(=O)N[C@H]1CCCNC1 [AZD7762] (partner 0.2 µM)
Outline: as §1

Kobe2602 + Tozasertib = compound: C1=CC(=CC=C1NC(=S)NNC2=C(C=C(C=C2[N+](=O)[O-])C(F)(F)F)[N+](=O)[O-])F [Kobe2602] + Cc1cc(Nc2cc(N3CCN(C)CC3)nc(Sc3ccc(NC(=O)C4CC4)cc3)n2)n[nH]1 [Tozasertib] (partner 0.1 µM)
Outline: as §1

Cell Line	relative viability ([1]; first compound 0.02 µM)	relative viability ([1]; first compound 0.06325 µM)	relative viability ([1]; first compound 0.2 µM)	relative viability ([1]; first compound 0.6325 µM)	relative viability ([1]; first compound 2 µM)	relative viability ([2]; first compound 0.02 µM)	relative viability ([2]; first compound 0.06325 µM)	relative viability ([2]; first compound 0.2 µM)	relative viability ([2]; first compound 0.6325 µM)	relative viability ([2]; first compound 2 µM)	relative viability (Zosuquidar + AZD7762; first compound 0.01 µM)	relative viability (Zosuquidar + AZD7762; first compound 0.03162 µM)	relative viability (Zosuquidar + AZD7762; first compound 0.1 µM)	relative viability (Zosuquidar + AZD7762; first compound 0.3162 µM)	relative viability (Zosuquidar + AZD7762; first compound 1 µM)	relative viability (Kobe2602 + Tozasertib; first compound 0.2 µM)	relative viability (Kobe2602 + Tozasertib; first compound 0.6325 µM)	relative viability (Kobe2602 + Tozasertib; first compound 2 µM)	relative viability (Kobe2602 + Tozasertib; first compound 6.325 µM)	relative viability (Kobe2602 + Tozasertib; first compound 20 µM)
201T	0.968	1.1	0.916	0.935	0.87	1.12	1.08	1.04	1.06	1.03	0.592	0.623	0.67	0.685	0.731	0.94	0.968	0.966	0.924	0.881
NCI-H1734	0.292	0.284	0.275	0.286	0.214	0.186	0.206	0.22	0.203	0.186	0.526	0.515	0.563	0.599	0.514	0.282	0.252	0.24	0.28	0.246
NCI-H1651	0.861	0.739	0.754	0.706	0.48	0.881	0.879	0.908	0.733	0.946	0.459	0.476	0.415	0.403	0.384	0.683	0.681	0.621	0.584	0.774
PC-3 [JPC-3]	0.928	1.04		0.938	0.861	0.857	0.803		0.825	0.777	0.78	0.9	0.648	0.836	0.524	0.885	0.836	0.849	0.858	0.807
NCI-H2342	0.656	0.516	0.553	0.478	0.401	0.673	0.837	0.864	0.604	0.591	0.63	0.527	0.44	0.552	0.47	0.575	0.546	0.408	0.491	0.542
NCI-H1915	0.46	0.447	0.471	0.435	0.416	0.915	0.978	0.779	0.871	0.776	0.714	0.699	0.613	0.816	0.756	0.422	0.43	0.393	0.438	0.399
ChaGo-K-1	0.263	0.203	0.234	0.23	0.201	0.638	0.757	0.737	0.765	0.447	0.807	0.799	0.896	0.818	0.93	0.251	0.244	0.226	0.227	0.245
HOP-62	0.398	0.388	0.378	0.376	0.346	1.03	1	0.902	0.881	0.838	0.619	0.771	0.512	0.802	0.631	0.399	0.359	0.418	0.341	0.335
NCI-H1975	0.761	0.78	0.699	0.435	0.295	0.221	0.258	0.233	0.219	0.212	0.675	0.744	0.661	0.788	0.791	0.614	0.432	0.511	0.689	0.355
BEN	0.512	0.474	0.507	0.56	0.461	0.3	0.414	0.326	0.352	0.257	0.738	0.615	0.518	0.724	0.589	0.56	0.518	0.491	0.666	0.555
EMC-BAC-2	0.292	0.335	0.334	0.284	0.295	1.23	1.15	1.24	1.1	1.09	1.1	1.15	1.11	1.26	0.979	0.286	0.297	0.286	0.333	0.32
NCI-H441	0.646	0.72	0.673	0.509	0.649	0.326	0.404	0.306	0.324	0.375	0.991	1.33	1.09	1.23	1.19	0.692	0.638	0.543	0.708	0.635
NCI-H727	0.53	0.777	0.513	0.513	0.554	0.285	0.453	0.643	0.362	0.312	0.502	0.573		0.714	0.405	0.716	0.583	0.741	0.702	0.504
LU99A	0.27	0.245	0.258	0.255	0.224	0.283	0.268	0.238	0.196	0.261	0.257	0.413	0.355	0.418	0.375	0.287	0.323	0.286	0.237	0.298
NCI-H2405	0.743	0.856	0.777	0.789	0.667	0.615	0.83	0.648	0.629	0.588	0.691	0.714	0.766	0.739	0.539	0.804	0.758	0.732	0.767	0.853
HCC-827	0.456	0.481		0.436	0.414	0.898	1.02		0.824	0.565	0.171	0.212	0.148	0.216	0.192	0.444	0.448	0.391	0.416	0.425
